Reference: ChEMBL document CHEMBL5715949, “Discovery of a selective irreversible BMX inhibitor for prostate cancer” (ACS Chem Biol, 2013)
The source made the active and inactive calls. The calls are words filed in the database; no cut-off is given here.

Assays:
[1] = target: Mitogen-activated protein kinase kinase kinase 7 (Homo sapiens) (UniProt O43318); experiment: Inhibition of TAK1 (unknown origin) assessed as remaining activity at 1 uM by Kinome scan method relative to control
[2] = target: Mitogen-activated protein kinase 4 (Homo sapiens) (UniProt P31152); experiment: Inhibition of ERK4 (unknown origin) assessed as remaining activity at 1 uM by Kinome scan method relative to control
[3] = Inhibition of PI3K/AKT/mTOR signalling pathway in human RV-1 cells assessed as decrease in 4EBP phosphorylation at T37/46 residue at 2.5 uM incubated for 5 days by immunoblot analysis; type: cell-based; settings: time 5.0 day
[4] = system: Mast/stem cell growth factor receptor Kit (Homo sapiens), P10721 [V559D]; experiment: Inhibition of KIT V559D mutant (unknown origin) assessed as remaining activity at 1 uM by Kinome scan method relative to control
[5] = target: Serine/threonine-protein kinase DCLK3 (Homo sapiens) (UniProt Q9C098); experiment: Inhibition of DCAMKL3 (unknown origin) assessed as remaining activity at 1 uM by Kinome scan method relative to control
[6] = target: Tyrosine-protein kinase CSK (Homo sapiens) (UniProt P41240); experiment: Inhibition of CSK (unknown origin) assessed as remaining activity at 1 uM by Kinome scan method relative to control
[7] = target: STE20/SPS1-related proline-alanine-rich protein kinase (Homo sapiens) (UniProt Q9UEW8); experiment: Inhibition of STK39 (unknown origin) assessed as remaining activity at 1 uM by Kinome scan method relative to control
[8] = Down regulation of BMX protein expression in human RV-1 cells expressing BMX C496S mutant assessed protein expression level at 2.5 uM pre incubated for 4 hrs followed by compound wash out and additon of CHX and measured after 16 hrs by immunoblot analysis (reference value: 1.01 to 1.13); type: functional
[9] = target: Inhibitor of nuclear factor kappa-B kinase subunit beta (Homo sapiens) (UniProt O14920); experiment: Inhibition of IKK-beta (unknown origin) assessed as remaining activity at 1 uM by Kinome scan method relative to control
[10] = system: Receptor-type tyrosine-protein kinase FLT3 (Homo sapiens), P36888 [N841I]; experiment: Inhibition of FLT3 N841I mutant (unknown origin) assessed as remaining activity at 1 uM by Kinome scan method relative to control
[11] = target: Cyclin-dependent kinase 7 (Homo sapiens) (UniProt P50613); experiment: Inhibition of CDK7 (unknown origin) assessed as remaining activity at 1 uM by Kinome scan method relative to control
[12] = target: Serine/threonine-protein kinase TAO2 (Homo sapiens) (UniProt Q9UL54); experiment: Inhibition of TAOK2 (unknown origin) assessed as remaining activity at 1 uM by Kinome scan method relative to control
[13] = target: Ribosomal protein S6 kinase alpha-4 (Homo sapiens) (UniProt O75676); experiment: Inhibition of N-terminal kinase domain RPS6KA4 (unknown origin) assessed as remaining activity at 1 uM by Kinome scan method relative to control
[14] = target: Ephrin type-A receptor 1 (Homo sapiens) (UniProt P21709); experiment: Inhibition of EPHA1 (unknown origin) assessed as remaining activity at 1 uM by Kinome scan method relative to control
[15] = target: Serine/threonine-protein kinase PAK 2 (Homo sapiens) (UniProt Q13177); experiment: Inhibition of PAK2 (unknown origin) assessed as remaining activity at 1 uM by Kinome scan method relative to control
[16] = target: TGF-beta receptor type-1 (Homo sapiens) (UniProt P36897); experiment: Inhibition of TGFBR1 (unknown origin) assessed as remaining activity at 1 uM by Kinome scan method relative to control
[17] = target: Ribosomal protein S6 kinase alpha-3 (Homo sapiens) (UniProt P51812); experiment: Inhibition of N-terminal kinase domain RSK2 (unknown origin) assessed as remaining activity at 1 uM by Kinome scan method relative to control
BaF3 = experiment: Antiproliferative activity against mouse BaF3 cells expressing TEL-fused TYK2 […] mutant assessed growth inhibition incubated for 2 to 5 days by CellTiter-Glo assay; type: functional; settings: time 2-5 day
[18] = system: Mast/stem cell growth factor receptor Kit (Homo sapiens), P10721 [D816H]; experiment: Inhibition of KIT D816H mutant (unknown origin) assessed as remaining activity at 1 uM by Kinome scan method relative to control
[19] = target: AP2-associated protein kinase 1 (Homo sapiens) (UniProt Q2M2I8); experiment: Inhibition of AAK1 (unknown origin) assessed as remaining activity at 1 uM by Kinome scan method relative to control
RV-1 [20] = experiment: Down regulation of BMX protein expression in human RV-1 cells expressing BMX C496S mutant at 5 uM incubated for 72 hrs by western blot analysis; type: functional, cell-based
[21] = target: Platelet-derived growth factor receptor alpha (Homo sapiens) (UniProt P16234); experiment: Inhibition of PDGFRalpha (unknown origin) assessed as remaining activity at 1 uM by Kinome scan method relative to control
[22] = target: Ephrin type-A receptor 6 (Homo sapiens) (UniProt Q9UF33); experiment: Inhibition of EPHA6 (unknown origin) assessed as remaining activity at 1 uM by Kinome scan method relative to control
RV-1 [23] = experiment: Antiproliferative activity against human RV-1 cells assessed as reduction in cell viability at 500 to 2500 nM incubated for 5 days in presence of lapatinib by CellTiter-Glo assay; type: functional, cell-based; settings: dose 500-2500 nM, time 5.0 day
[24] = target: Serine/threonine-protein kinase tousled-like 1 (Homo sapiens) (UniProt Q9UKI8); experiment: Inhibition of TLK1 (unknown origin) assessed as remaining activity at 1 uM by Kinome scan method relative to control
[25] = target: Serine/threonine-protein kinase D2 (Homo sapiens) (UniProt Q9BZL6); experiment: Inhibition of PRKD2 (unknown origin) assessed as remaining activity at 1 uM by Kinome scan method relative to control
[26] = target: Phosphatidylinositol 4,5-bisphosphate 3-kinase catalytic subunit beta isoform (Homo sapiens) (UniProt P42338); experiment: Inhibition of PIK3CB (unknown origin) assessed as remaining activity at 1 uM by Kinome scan method relative to control
[27] = target: Tyrosine-protein kinase JAK2 (Homo sapiens) (UniProt O60674); experiment: Inhibition of JAK2 JH1 domain (unknown origin) assessed as remaining activity at 1 uM by Kinome scan method relative to control
[28] = target: Dual specificity testis-specific protein kinase 1 (Homo sapiens) (UniProt Q15569); experiment: Inhibition of TESK1 (unknown origin) assessed as remaining activity at 1 uM by Kinome scan method relative to control
[29] = target: Mitogen-activated protein kinase kinase kinase 15 (Homo sapiens) (UniProt Q6ZN16); experiment: Inhibition of MAP3K15 (unknown origin) assessed as remaining activity at 1 uM by Kinome scan method relative to control
[30] = target: Serine/threonine-protein kinase RIO1 (Homo sapiens) (UniProt Q9BRS2); experiment: Inhibition of RIOK1 (unknown origin) assessed as remaining activity at 1 uM by Kinome scan method relative to control
[31] = target: Protein kinase C iota type (Homo sapiens) (UniProt P41743); experiment: Inhibition of PRKCI (unknown origin) assessed as remaining activity at 1 uM by Kinome scan method relative to control

Sequence of Platelet-derived growth factor receptor alpha (Homo sapiens) (P16234 whole entry): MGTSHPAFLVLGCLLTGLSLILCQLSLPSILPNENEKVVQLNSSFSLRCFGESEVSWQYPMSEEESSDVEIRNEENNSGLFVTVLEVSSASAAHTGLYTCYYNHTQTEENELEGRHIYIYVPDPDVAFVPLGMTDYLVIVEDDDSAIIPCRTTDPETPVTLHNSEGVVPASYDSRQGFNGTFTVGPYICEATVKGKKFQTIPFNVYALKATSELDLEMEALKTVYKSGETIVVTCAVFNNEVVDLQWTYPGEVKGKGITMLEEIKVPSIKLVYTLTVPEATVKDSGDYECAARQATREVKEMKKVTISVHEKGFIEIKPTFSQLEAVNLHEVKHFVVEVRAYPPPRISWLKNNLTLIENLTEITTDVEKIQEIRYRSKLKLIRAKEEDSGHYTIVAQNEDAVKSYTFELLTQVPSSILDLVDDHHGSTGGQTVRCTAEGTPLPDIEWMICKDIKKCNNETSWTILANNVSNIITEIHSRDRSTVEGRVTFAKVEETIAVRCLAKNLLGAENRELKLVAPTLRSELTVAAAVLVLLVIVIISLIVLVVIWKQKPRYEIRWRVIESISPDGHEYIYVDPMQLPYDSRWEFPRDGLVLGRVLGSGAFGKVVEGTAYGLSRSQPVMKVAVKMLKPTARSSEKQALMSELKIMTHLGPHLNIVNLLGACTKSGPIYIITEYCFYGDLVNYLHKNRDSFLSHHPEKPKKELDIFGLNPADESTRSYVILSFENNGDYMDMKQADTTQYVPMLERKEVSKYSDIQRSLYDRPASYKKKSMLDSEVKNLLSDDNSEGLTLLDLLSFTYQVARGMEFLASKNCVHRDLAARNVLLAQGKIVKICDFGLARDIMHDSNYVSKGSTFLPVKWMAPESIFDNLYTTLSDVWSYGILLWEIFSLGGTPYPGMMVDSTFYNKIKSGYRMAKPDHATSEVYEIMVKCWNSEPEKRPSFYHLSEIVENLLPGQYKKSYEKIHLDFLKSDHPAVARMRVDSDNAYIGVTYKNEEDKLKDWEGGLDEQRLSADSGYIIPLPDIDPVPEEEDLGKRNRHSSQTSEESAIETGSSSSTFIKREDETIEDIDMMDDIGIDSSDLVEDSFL
Sequence of Mast/stem cell growth factor receptor Kit (Homo sapiens), P10721 [V559D] (P10721 whole entry V559D): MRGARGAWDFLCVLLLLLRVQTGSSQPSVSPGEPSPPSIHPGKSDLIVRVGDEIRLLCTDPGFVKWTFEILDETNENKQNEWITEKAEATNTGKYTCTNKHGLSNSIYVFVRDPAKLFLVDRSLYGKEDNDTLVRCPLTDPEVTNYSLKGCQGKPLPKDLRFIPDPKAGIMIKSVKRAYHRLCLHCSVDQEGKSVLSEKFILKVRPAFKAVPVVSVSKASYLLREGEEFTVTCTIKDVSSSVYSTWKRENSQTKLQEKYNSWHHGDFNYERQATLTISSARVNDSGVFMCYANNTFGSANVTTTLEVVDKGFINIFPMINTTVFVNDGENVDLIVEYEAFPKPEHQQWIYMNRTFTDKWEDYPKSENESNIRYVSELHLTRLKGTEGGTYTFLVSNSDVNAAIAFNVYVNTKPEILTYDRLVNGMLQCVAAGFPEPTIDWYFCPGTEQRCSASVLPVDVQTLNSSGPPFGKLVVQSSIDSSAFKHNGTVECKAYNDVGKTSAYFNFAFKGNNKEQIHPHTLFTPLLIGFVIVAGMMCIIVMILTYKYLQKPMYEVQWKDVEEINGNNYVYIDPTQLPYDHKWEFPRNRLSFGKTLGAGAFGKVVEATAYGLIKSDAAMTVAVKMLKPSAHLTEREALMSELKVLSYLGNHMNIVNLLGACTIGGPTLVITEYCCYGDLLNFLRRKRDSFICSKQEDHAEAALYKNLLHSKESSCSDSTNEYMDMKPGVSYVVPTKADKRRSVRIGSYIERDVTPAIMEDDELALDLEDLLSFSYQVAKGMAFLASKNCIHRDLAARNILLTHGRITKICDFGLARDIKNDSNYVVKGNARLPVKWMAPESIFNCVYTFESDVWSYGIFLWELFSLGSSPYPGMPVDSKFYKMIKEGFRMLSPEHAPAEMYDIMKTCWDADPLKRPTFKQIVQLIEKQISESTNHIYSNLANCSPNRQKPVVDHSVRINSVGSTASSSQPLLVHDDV
Sequence of Serine/threonine-protein kinase TAO2 (Homo sapiens) (Q9UL54 whole entry, the tested form may be a part): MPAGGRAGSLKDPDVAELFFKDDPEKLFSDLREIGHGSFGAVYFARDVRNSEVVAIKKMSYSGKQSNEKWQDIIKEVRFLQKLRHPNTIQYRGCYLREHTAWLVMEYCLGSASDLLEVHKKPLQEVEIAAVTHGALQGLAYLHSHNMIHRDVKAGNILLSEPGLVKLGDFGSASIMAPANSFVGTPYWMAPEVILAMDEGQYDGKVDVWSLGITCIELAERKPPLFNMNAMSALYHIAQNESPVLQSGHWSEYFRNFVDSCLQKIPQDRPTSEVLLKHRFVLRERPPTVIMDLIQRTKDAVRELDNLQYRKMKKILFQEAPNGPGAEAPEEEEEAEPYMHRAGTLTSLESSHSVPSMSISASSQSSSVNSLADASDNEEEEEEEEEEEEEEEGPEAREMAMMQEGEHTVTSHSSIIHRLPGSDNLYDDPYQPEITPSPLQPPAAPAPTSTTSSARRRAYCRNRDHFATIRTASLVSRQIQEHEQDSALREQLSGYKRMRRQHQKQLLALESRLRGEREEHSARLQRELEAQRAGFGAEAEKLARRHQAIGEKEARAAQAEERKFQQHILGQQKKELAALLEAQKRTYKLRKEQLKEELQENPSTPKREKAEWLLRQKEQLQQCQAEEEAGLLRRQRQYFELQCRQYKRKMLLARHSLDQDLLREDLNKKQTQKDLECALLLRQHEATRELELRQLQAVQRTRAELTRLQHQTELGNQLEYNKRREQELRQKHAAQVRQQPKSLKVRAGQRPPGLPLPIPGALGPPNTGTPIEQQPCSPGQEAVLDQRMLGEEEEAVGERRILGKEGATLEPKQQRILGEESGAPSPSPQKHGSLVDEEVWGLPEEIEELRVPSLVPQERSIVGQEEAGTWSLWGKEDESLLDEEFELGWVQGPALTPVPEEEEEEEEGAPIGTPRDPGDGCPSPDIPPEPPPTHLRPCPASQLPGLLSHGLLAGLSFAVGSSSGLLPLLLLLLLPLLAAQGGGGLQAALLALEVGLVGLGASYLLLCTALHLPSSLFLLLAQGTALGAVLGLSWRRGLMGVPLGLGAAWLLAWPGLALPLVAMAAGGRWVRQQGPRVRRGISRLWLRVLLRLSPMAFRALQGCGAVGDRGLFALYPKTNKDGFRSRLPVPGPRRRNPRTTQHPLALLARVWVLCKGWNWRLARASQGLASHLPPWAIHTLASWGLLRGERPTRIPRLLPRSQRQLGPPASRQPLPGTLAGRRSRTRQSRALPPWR
Sequence of Dual specificity testis-specific protein kinase 1 (Homo sapiens) (Q15569 whole entry, looked up): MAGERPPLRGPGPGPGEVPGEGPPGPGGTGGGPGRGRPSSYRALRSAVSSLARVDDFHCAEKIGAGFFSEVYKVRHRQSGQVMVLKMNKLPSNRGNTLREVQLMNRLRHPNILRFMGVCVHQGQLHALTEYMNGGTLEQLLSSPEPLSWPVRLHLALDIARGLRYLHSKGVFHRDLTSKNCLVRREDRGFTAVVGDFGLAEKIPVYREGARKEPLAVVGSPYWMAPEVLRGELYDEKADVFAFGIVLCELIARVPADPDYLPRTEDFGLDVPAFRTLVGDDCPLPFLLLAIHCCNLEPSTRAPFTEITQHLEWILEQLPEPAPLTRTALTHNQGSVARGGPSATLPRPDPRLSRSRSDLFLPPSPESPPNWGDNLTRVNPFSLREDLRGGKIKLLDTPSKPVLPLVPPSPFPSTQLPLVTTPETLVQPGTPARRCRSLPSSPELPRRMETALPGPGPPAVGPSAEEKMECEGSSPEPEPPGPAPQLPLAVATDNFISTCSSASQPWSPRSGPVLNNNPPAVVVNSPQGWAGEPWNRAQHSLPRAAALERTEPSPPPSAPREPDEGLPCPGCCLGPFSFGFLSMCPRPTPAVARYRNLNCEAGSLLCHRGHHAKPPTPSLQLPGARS
Sequence of Ribosomal protein S6 kinase alpha-3 (Homo sapiens) (P51812 whole entry, the tested form may be a part): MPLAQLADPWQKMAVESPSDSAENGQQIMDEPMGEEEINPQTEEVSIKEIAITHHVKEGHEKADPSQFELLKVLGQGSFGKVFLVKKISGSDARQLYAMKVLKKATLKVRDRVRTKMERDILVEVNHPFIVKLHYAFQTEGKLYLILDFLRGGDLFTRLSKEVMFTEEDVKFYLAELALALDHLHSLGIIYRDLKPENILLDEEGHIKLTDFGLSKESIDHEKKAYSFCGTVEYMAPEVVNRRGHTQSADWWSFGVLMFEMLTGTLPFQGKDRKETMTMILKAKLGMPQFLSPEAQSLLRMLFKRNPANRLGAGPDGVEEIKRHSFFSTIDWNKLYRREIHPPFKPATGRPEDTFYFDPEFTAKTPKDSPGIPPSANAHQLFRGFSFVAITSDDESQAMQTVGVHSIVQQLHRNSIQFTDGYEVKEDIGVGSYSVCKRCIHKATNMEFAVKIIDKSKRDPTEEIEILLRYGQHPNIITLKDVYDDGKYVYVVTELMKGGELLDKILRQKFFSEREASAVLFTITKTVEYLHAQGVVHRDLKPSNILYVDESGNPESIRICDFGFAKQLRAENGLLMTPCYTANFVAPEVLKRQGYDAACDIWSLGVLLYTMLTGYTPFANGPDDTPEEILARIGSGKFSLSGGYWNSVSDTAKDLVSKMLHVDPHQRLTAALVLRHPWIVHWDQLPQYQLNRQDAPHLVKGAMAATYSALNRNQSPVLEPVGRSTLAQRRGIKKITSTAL
Sequence of Cyclin-dependent kinase 7 (Homo sapiens) (P50613 whole entry): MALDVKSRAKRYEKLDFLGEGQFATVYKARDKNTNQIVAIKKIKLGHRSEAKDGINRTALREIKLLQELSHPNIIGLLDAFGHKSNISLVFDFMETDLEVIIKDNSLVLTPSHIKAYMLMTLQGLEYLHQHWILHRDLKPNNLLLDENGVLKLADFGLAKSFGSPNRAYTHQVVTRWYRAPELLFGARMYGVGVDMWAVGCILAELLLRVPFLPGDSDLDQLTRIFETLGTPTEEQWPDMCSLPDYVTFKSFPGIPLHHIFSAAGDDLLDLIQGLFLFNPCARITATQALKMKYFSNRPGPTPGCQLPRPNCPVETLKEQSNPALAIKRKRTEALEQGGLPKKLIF
Sequence of Mast/stem cell growth factor receptor Kit (Homo sapiens), P10721 [D816H] (P10721 whole entry D816H): as the sequence (P10721 whole entry V559D) above, with D559V, D816H counted along it

In the case of `C=CC(=O)Nc1cc(-n2c(=O)ccc3cnc4ccc(-c5ccc(NS(C)(=O)=O)cc5)cc4c32)ccc1C`, the Activity [1] is reported as 83%, the Activity [2] is reported as 91% and the inhibition [3] is reported as “Active”. It also gave an Activity [4] of 87%, an Activity [5] of 94% and an Activity [6] of 99%. For the same molecule, the Activity [7] was 68%, the Activity [8] was 0.74 and the Activity [9] was 93%. The Activity [10] was 85%, the Activity [11] was 79% and the Activity [12] was 80%. The Activity [13] was 67%, the Activity [14] was 92% and the Activity [15] was 78%. The Activity [16] was 97%, the Activity [17] was 81% and the GI50 (BaF3) was 6.09 µM. The Activity [18] was 99%, the Activity [19] was 93% and the Activity (RV-1 [20]) was “Active”. For the same molecule, the Activity [21] was 92%, the Activity [22] was 96% and the Activity (RV-1 [23]) was “Active”. For the same molecule, the Activity [24] was 86%, the Activity [25] was 87% and the Activity [26] was 75%. For the same molecule, the Activity [27] was 86%, the Activity [28] was 94% and the Activity [29] was 70%. For the same molecule, the Activity [30] was 20% and the Activity [31] was 84%.
